Assay results as given in patent US4596806A, “7-piperidino-1,2,3,5-tetrahydroimidazo[2,1-b]-quinazolin-2-one having platelet aggregation inhibitory activity” (Daiichi Seiyaku Co., Ltd., priority 1983, dated 1986).
pIC50: −log10 of the molar value. Counter-ions that a name gives are not always drawn. Like-named read-outs stand apart in the source and are kept apart here.

What was measured:
platelet aggregation [1] = experiment: Test of Platelet Aggregation Inhibition (in vitro), human PRP; assay type: cell-based; conditions: for pIC50: Homo sapiens, Platelet, human blood, read-out: Platelet Aggregation Inhibitory Activity (in vitro: IC50)
Method: (§1) The test was performed as follows in accordance with the method of Ashida et al, Thrombosis and Haemostasis, Vol. 40, p542 (1979).
(§2) Blood was taken by puncture from the heart of a Wistar Imamichi rat under anesthesia with pentobarbital into a syringe containing 1/10 volume of a 3.13% aqueous solution of sodium citrate dihydrate, and the citrated blood was centrifuged to obtain a platelet-rich-plasma (PRP). In the same manner, citrated blood was collected from the vein of a healthy human who had not taken aspirin or any other anti-inflammatory agent since before 10 days, followed by centrifugation to obtain PRP. 0.005 ml of each test compound was added to 0.445 ml each of these PRP samples, and the system was warmed at 30° C. for 1 minute. 0.05 ml of an aggregation inducer (ADP or collagen) was then added thereto, and platelet aggregation was determined according to the method of Born, Nature, Vol. 194, p927 (1962). The inhibitory activity of platelet aggregation was expressed in terms of 50% inhibition concentration, and the results obtained are shown in Table 2.

platelet aggregation [2] = experiment: Test of Platelet Aggregation Inhibition (in vitro), rat PRP; assay type: cell-based, rat (Wistar Imamichi); conditions: rat blood, read-out: Platelet Aggregation Inhibitory Activity (in vitro: IC50)
Method: as §1, §2

[3] = Solubility Test (water-solubility); assay type: physicochemical
platelet aggregation [4] = experiment: Test of Platelet Aggregation Inhibition (ex vivo, p.o.); assay type: in vivo, rat (male Wistar Imamichi); conditions: for inhibition at 1 mg/kg / inhibition at 10 mg/kg: Rattus norvegicus, Platelet, po, 1 h, read-out: Platelet Aggregation Inhibitory Activity (ex vivo: % inhibition); for inhibition at 1 mg/kg: p.o. 1 mg/Kg; for inhibition at 10 mg/kg: p.o. 10 mg/Kg; for aggregation inhibitory activity ex vivo (in words): p.o. 10 mg/Kg or 1 mg/Kg, ADP- or collagen-induced
Method: One hour later, citrated blood was taken from the heart, and platelet aggregation was determined in the same manner as described in Test Example 2.

circulatory system = experiment: Test of Influence on Circulatory System (blood pressure, heart beat); assay type: in vivo, rat (male normal SLC-Wistar); conditions: p.o. 50 mg/Kg
Method: 5 or 6 male normal SLC-Wistar rats per group (body weight: 205-255 g) orally received 50 mg/Kg of the test compound, and the blood pressure (tail cuff method) and the heart beats were measured with the passage of time in order to elucidate influences of the test compound on the circulatory system.

[5] = pH 2, Tap Water, solution pH about 2

Cl.Cl.Nc1ccc2c(c1)CN1CC(=O)NC1=N2 [BL-7-NH2, 7-amino-1,2,3,5-tetrahydroimidazo[2,1-b]quinazolin-2-one dihydrochloride]
pIC50 (platelet aggregation [1]; inducer ADP): 4.30
pIC50 (platelet aggregation [1]; inducer collagen): 4.55
anti-platelet aggregation activity (in words) (platelet aggregation [1]; in vitro, Table 2 results (human and rat PRP)): scarcely exhibits platelet aggregation inhibitory activity
pIC50 (platelet aggregation [2]; inducer ADP): 3.77
pIC50 (platelet aggregation [2]; inducer collagen): 4.80

Cc1cccc2c1CN1CC(=O)NC1=N2.Cl [BL-3459, 6-methyl-1,2,3,5-tetrahydroimidazo[2,1-b]quinazolin-2-one hydrochloride]
solubility ([3]; Water at pH 4): 10 µg/mL
solubility [3, 5]: 100 µg/mL
pIC50 (platelet aggregation [1]; inducer ADP): 5.77
pIC50 (platelet aggregation [1]; inducer collagen): 6.15
pIC50 (platelet aggregation [2]; inducer ADP): 5.30
pIC50 (platelet aggregation [2]; inducer collagen): 6.12
inhibition at 1 mg/kg (platelet aggregation [4]; inducer ADP): 12%
inhibition at 1 mg/kg (platelet aggregation [4]; inducer collagen): 41%
inhibition at 10 mg/kg (platelet aggregation [4]; inducer ADP): 31%
inhibition at 10 mg/kg (platelet aggregation [4]; inducer collagen): 54%
aggregation inhibitory activity ex vivo (in words) (platelet aggregation [4]): cannot be regarded significant
Increase in Heart Beat (circulatory system; 1 hr after admin.): 18%
Reduction in Blood Pressure (circulatory system; 1 hr after admin.): 23%
Increase in Heart Beat (circulatory system; 2 hr after admin.): 20%
Reduction in Blood Pressure (circulatory system; 2 hr after admin.): 28%
Increase in Heart Beat (circulatory system; 3 hr after admin.): 17%
Reduction in Blood Pressure (circulatory system; 3 hr after admin.): 26%
Increase in Heart Beat (circulatory system; 5 hr after admin.): 18%
Reduction in Blood Pressure (circulatory system; 5 hr after admin.): 34%
Increase in Heart Beat (circulatory system; 6 hr after admin.): 19%
Reduction in Blood Pressure (circulatory system; 6 hr after admin.): 35%
Reduction in Blood Pressure (circulatory system; 24 hr after admin.): 12%

O=C1CN2Cc3c(ccc(Cl)c3Cl)N=C2N1 [BL-4162, 6,7-dichloro-1,2,3,5-tetrahydro[2,1-b]quinazolin-2-one hydrochloride]
solubility ([3]; Water at pH 4): 10 µg/mL
solubility [3, 5]: 10 µg/mL
pIC50 (platelet aggregation [1]; inducer ADP): 5.92
pIC50 (platelet aggregation [1]; inducer collagen): 6.30
pIC50 (platelet aggregation [2]; inducer ADP): 6.10
pIC50 (platelet aggregation [2]; inducer collagen): 7.70
inhibition at 1 mg/kg (platelet aggregation [4]; inducer ADP): 10%
inhibition at 1 mg/kg (platelet aggregation [4]; inducer collagen): 33%
inhibition at 10 mg/kg (platelet aggregation [4]; inducer ADP): 8%
inhibition at 10 mg/kg (platelet aggregation [4]; inducer collagen): 53%
aggregation inhibitory activity ex vivo (in words) (platelet aggregation [4]): cannot be regarded significant
Increase in Heart Beat (circulatory system; 1 hr after admin.): 28%
Reduction in Blood Pressure (circulatory system; 1 hr after admin.): 11%
Increase in Heart Beat (circulatory system; 2 hr after admin.): 37%
Reduction in Blood Pressure (circulatory system; 2 hr after admin.): 16%
Increase in Heart Beat (circulatory system; 3 hr after admin.): 31%
Reduction in Blood Pressure (circulatory system; 3 hr after admin.): 17%
Increase in Heart Beat (circulatory system; 4 hr after admin.): 37%
Reduction in Blood Pressure (circulatory system; 4 hr after admin.): 14%
Increase in Heart Beat (circulatory system; 5 hr after admin.): 31%
Reduction in Blood Pressure (circulatory system; 5 hr after admin.): 14%
Increase in Heart Beat (circulatory system; 6 hr after admin.): 31%
Reduction in Blood Pressure (circulatory system; 6 hr after admin.): 13%
